Earlier results on three molecules are cited in US4340609A, “Amidinourea derivative veterinary compositions for suppression of parasitemia” (William H. Rorer, Inc., priority 1980, dated 1982).

The subject of this series is Babesis caballi, or B. equi. As to conditions: horses; reported; cited from earlier work.
As to `C[n+]1cccc2cc(NC(=O)Nc3ccc4c(ccc[n+]4C)c3)ccc21` [acaprin], the “effect on equine piroplasmosis parasites” value was “only to reduce the number of parasites”. Consider `N=C(N)c1ccc(N=NNc2ccc(C(=N)N)cc2)cc1` [birenil], for which the “effect on equine piroplasmosis parasites” value is recorded as “only to reduce the number of parasites”.

In the case of acriflavin, the “effect on equine piroplasmosis parasites” value is on record as “only to reduce the number of parasites”.
